The results in this text go back to US7365069B2, “Pyrimidone derivatives” (Bexel Pharmaceuticals Inc., priority 2002, dated 2008).

One data set concerns TNF-α. Kind of data set: TNF-α production in LPS-stimulated human whole blood. In kind it is cell-based. Particulars: LPS 4 h. In outline: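 Human whole blood pre-incubated with compound 15 min at 37° C., then stimulated with LPS (Salmonella abortus equi, 1 μg/ml) for 4 h at 37° C. in 5% CO2. TNF-α quantified by ELISA.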
For data set [1], the system named is Male Wistar rats. Description: Gastroulcerogenic potential (stomach lesions after the paw edema test). The data set is classed as in vivo. Particulars: 10 mg/kg body weight, oral, rat. How it is done:
(§1) The carrageenan paw edema test is performed as described by Winter et al (Proc. Soc. Exp. Biol. Med, 111, 544, 1962). Male Wistar rats are selected and the body weights are equivalent within each group. The rats are fasted for eighteen hours with free access to water. The rats are dosed orally with the test compound suspended in vehicle containing 0.5% methylcellulose. The control rats are administered the vehicle alone. After an hour, the rats are injected with 0.1 ml of 1% Carrageenan solution in 0.9% saline into the sub-plantar surface of the right hind paw. Paw volume is measured using water plethysmograph before and after 3 hours of carrageenan injection. The average of foot swelling in drug treated animals is compared with that of control animals. Anti-inflammatory activity is expressed as the percentage inhibition of edema compared with control group [Arzneim-Forsch/Drug Res., 43(I), 1, 44-50,1993; Ottemess and Bliven, Laboratory Models for Testing NSAIDs, In Non-Steroidal Anti-Inflammatory Drugs, (J. Lombardino, ed. 1985)]. In order to evaluate their role on the ulcer formation, the animals are sacrificed and the stomach is taken out and flushed with 1% formalin. The stomach is opened along the greater curvature. The haemorrhagic puncta and sulci are identified microscopically and images are captured. The stomach lesions are calculated.

A further data set deals with IL-6. Kind of data set: IL-6 production in LPS-stimulated human whole blood. The data set is classed as cell-based. Particulars: LPS 4 h. As for the experimental part: This assay determines the effect of test compounds on the production of IL-6 from human whole blood. Compounds are tested for their ability to downregulate the production of IL-6 in activated whole blood. The test compounds are pre-incubated for 15 minutes at 37° C. and then stimulated with Lipopolysaccharide (Salmonella abortus equi, 1 μg/ml) for 4 h at 37° C. in 5% CO2. The levels of Interleukin-6 are estimated using Enzyme linked Immunosorbent assay performed in a 96 well format as per the procedure of the manufacturer (Cayman Chemical, Ann Arbor, USA).

The target in the next data set is T1, COX-2 (Homo sapiens, UniProt P35354).
T1 construct: incubation of human blood with lipopolysaccharide (LPS), which induces COX-2 production in the blood; endogenous in cells; host or cells: fresh human whole blood from volunteers, treated with aspirin and then LPS
T1 sequence (P35354 18-604): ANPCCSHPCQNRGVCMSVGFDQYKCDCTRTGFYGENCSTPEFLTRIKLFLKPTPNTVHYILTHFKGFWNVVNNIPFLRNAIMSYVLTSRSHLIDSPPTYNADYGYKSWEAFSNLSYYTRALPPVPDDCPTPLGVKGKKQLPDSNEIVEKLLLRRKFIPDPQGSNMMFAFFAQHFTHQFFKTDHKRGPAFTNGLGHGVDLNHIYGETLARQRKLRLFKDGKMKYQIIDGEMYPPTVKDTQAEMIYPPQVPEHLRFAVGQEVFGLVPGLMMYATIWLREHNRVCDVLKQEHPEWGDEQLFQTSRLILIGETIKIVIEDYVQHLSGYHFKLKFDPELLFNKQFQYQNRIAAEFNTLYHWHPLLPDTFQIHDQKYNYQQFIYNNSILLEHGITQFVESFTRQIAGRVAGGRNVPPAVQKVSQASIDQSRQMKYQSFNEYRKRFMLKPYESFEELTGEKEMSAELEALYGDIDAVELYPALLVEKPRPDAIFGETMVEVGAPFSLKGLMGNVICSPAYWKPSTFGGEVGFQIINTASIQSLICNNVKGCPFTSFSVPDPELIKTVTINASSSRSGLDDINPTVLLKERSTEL
Description: Human whole blood assay, COX-2 inhibition (PGE2 ELISA after LPS). The data set is classed as cell-based. Particulars: LPS 24 h. The method, boiled down: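 Fresh EDTA blood from healthy male donors was given aspirin (10 μg/ml) to inactivate COX-1. LPS (10 μg/ml) was then added together with test agent or vehicle, and the blood was incubated 24 h at 37° C. Plasma PGE2 was measured by ELISA.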
(In general: ELISA stands for enzyme-linked immunosorbent assay.)

The test system of data set [2] is Male Wistar rats. Description: Rat carrageenan paw edema test. The following applies: 10 mg/kg body weight, oral, paw volume 3 hours after carrageenan, read-out: Rat Paw Edema model % inhibition. In kind it is in vivo. As for the experimental part:
Rat Carrageenan Paw Edema Test
as §1
Background: Carrageenan injected into the paw causes an acute inflammation.

The test system of another data set is NCI-H460. Description: DTP human tumor cell line one-dose prescreen, NCI-H460. The following applies: 48 hours, Alamar Blue, test/control, read-out: Percentage growth Lung NCI-H460. The data set is classed as cell-based.
The test system of another data set is MCF-7. Kind of data set: DTP human tumor cell line one-dose prescreen, MCF-7. Particulars: MCF7, 48 hours, Alamar Blue, test/control, read-out: Percentage growth Breast MCF-7. In kind it is cell-based.
A further data set concerns SF-268. Description: DTP human tumor cell line one-dose prescreen, SF-268. The following applies: 48 hours, Alamar Blue, test/control, read-out: Percentage growth CNS SF-268. In kind it is cell-based. In general terms: The colour change of resazurin is a common sign of viable cells or microbes.

Bounds are passed on as bounds.

As for `CSc1ccc(-n2c(-c3ccc(Cl)cc3)nc(SC)c(C#N)c2=O)cc1` [Example 1, 5-cyano-2-(4-chlorophenyl)-4-(methylthio)-1-[4-(methylthio)phenyl]-6-oxo-1,6-dihydropyrimidine], the melting point was 206 to 207 °C. In the data set with TNF-α (0.1 μM), this compound showed an inhibition at 0.1 µM of 56.9%. The “Gastroulcerogenic potential (% incidence of ulceration)” value in the data set with Male Wistar rats [1] is recorded as 75%. Besides, the inhibition at 0.1 µM in the data set with IL-6 (0.1 μM) amounted to 52.8%. At COX-2, this compound showed an inhibition at 10 µM of 13%. For the same compound, in the data set with Male Wistar rats [2], the inhibition in vivo at 10 mg/kg came out at 29%.
In the case of `CSc1ccc(-n2c(-c3ccc(F)cc3)nc(SC)c(C#N)c2=O)cc1` [Example 2, 5-cyano-2-(4-fluorophenyl)-4-(methylthio)-1-[4-(methylthio)phenyl]-6-oxo-1,6-dihydropyrimidine], the melting point is 204 to 207 °C. In the data set on Male Wistar rats [1], the “Gastroulcerogenic potential (% incidence of ulceration)” value is 25%. The same compound gave an inhibition at 0.25 µM in the data set on IL-6 of 45%. The compound also returned an inhibition at 1 µM on COX-2 of 53.4%. Further, the inhibition in vivo at 10 mg/kg in the data set on Male Wistar rats [2] was 39%.
`CSc1ccc(-n2c(-c3ccc(C(F)(F)F)cc3)nc(SC)c(C#N)c2=O)cc1` [Example 4] registered a melting point of 228 to 229 °C. In the data set on Male Wistar rats [1], the “Gastroulcerogenic potential (% incidence of ulceration)” value was 25%. Testing at 0.25 µM with IL-6 gave an inhibition of 48.4%. For the same compound, on COX-2, the inhibition at 10 µM came out at 50.1%. The inhibition in vivo at 10 mg/kg with Male Wistar rats [2] is 38.5%.
As to `CSc1ccc(-c2nc(SC)c(C#N)c(=O)n2-c2ccc(F)cc2)cc1` [Example 5, 5-cyano-2-[(4-methylthio)phenyl]-4-(methylthio)-1-[4-fluorophenyl]-6-oxo-1,6-dihydropyrimidine], the melting point lay within 219 to 221 °C. The “Gastroulcerogenic potential (% incidence of ulceration)” value with Male Wistar rats [1] amounted to 37.5%. The compound further had an inhibition at 0.25 µM in the data set on IL-6 of 51%. The same compound displayed an inhibition at 1 µM against COX-2 of 40.5%. Also, the inhibition in vivo at 10 mg/kg with Male Wistar rats [2] came to 13.3%.
In turn, `CSc1ccc(-c2nc(SC)c(C#N)c(=O)n2-c2ccc(C)cc2)cc1` [Example 6, 5-cyano-1-(4-methylphenyl)-4-(methylthio)-2-[4-(methylthio)phenyl]-6-oxo-1,6-dihydropyrimidine] returned a melting point of 196 to 198 °C. Further, the inhibition at 1 µM in the data set on TNF-α was determined as 28.8%. Besides, the “Gastroulcerogenic potential (% incidence of ulceration)” value in the data set on Male Wistar rats [1] is 25%. Besides, the inhibition at 0.25 µM in the data set with IL-6 is 41.4%. 1 µM produced 55.7% inhibition against COX-2. Moreover, the inhibition in vivo at 10 mg/kg in the data set on Male Wistar rats [2] was 40.2%.
Turning to `CSc1nc(-c2ccc(S(C)(=O)=O)cc2)n(-c2ccc(C)cc2)c(=O)c1C#N` [Example 7, 5-cyano-2-[(4-methylsulphonyl)phenyl]-4-(methylthio)-1-(4-methylphenyl)-6-oxo-1,6-dihydropyrimidine], the melting point was in the range of 242 to 244 °C. The “Gastroulcerogenic potential (% incidence of ulceration)” value with Male Wistar rats [1] came to 25%. The inhibition at 1 µM with IL-6 amounted to 37.1%. For the same compound, the inhibition at 0.25 µM against COX-2 (0.25 μM) is 31.7%. Further, the inhibition in vivo at 10 mg/kg with Male Wistar rats [2] was found to be 28.1%.
The compound `CSc1ccc(-c2nc(SC)c(C#N)c(=O)n2-c2ccc(C(C)C)cc2)cc1` [Example 9, 5-cyano-1-(4-isopropylphenyl)-4-(methylthio)-2-[4-(methylthio)phenyl]-6-oxo-1,6-dihydropyrimidine] registered a melting point of 180 to 181 °C. In addition, the “Gastroulcerogenic potential (% incidence of ulceration)” value in the data set on Male Wistar rats [1] worked out at 0%. This compound came in with an inhibition at 0.25 µM in the data set with IL-6 of 31.1%. The inhibition in vivo at 10 mg/kg in the data set with Male Wistar rats [2] worked out at 37.2%.
Regarding `CSc1ccc(-c2nc(SC)c(C#N)c(=O)n2-c2ccc(C)c(C)c2)cc1` [Example 10, 5-cyano-1-(3,4-dimethylphenyl)-4-(methylthio)-2-[4-(methylthio)phenyl]-6-oxo-1,6-dihydropyrimidine], the melting point lay within 234 to 236 °C. In the data set with TNF-α (10 μM), this compound displayed an inhibition at 10 µM of 26.4%. Moreover, the “Gastroulcerogenic potential (% incidence of ulceration)” value in the data set with Male Wistar rats [1] was determined as 0%. Also, testing at 1 µM in the data set on IL-6 gave an inhibition of 48.6%. At COX-2 (0.1 μM), this compound came in with an inhibition at 0.1 µM of 62.8%. For the same compound, in the data set with Male Wistar rats [2], the inhibition in vivo at 10 mg/kg was 68.6%.
`CSc1ccc(-c2nc(SC)c(C#N)c(=O)n2-c2ccc(C(C)(C)C)cc2)cc1` [Example 22, 1-(4-tert-butylphenyl)-5-cyano-4-(methylthio)-2-[4-(methylthio)phenyl]-6-oxo-1,6-dihydropyrimidine]: the melting point fell in the range of 233 to 236 °C. For the same compound, the inhibition at 1 µM with TNF-α amounted to 62.7%. The activity at 50 µM in the data set with NCI-H460 came out at 80%. Moreover, in the data set on IL-6, the inhibition at 1 µM came out at 66.3%. Moreover, the activity at 50 µM in the data set with MCF-7 amounted to 83%.
Regarding `CNc1nc(-c2ccc(F)cc2)n(-c2ccc(S(C)(=O)=O)cc2)c(=O)c1C(N)=O` [Example 49, 5-carboxamido-2-(4-fluorophenyl)-4-(methylamino)-1-[4-(methylsulfonyl)phenyl]-6-oxo-1,6-dihydropyrimidine], the melting point is above 300 °C. The activity at 50 µM with SF-268 came out at 88%. Further, the activity at 50 µM in the data set on NCI-H460 is 72%. In addition, the activity at 50 µM in the data set on MCF-7 worked out at 79%.
For `CS(=O)(=O)c1ccc(-n2c(-c3ccc(F)cc3)nc(N3CCOCC3)c(C(N)=O)c2=O)cc1` [Example 50, 5-carboxamido-2-(4-fluorophenyl)-1-[4-(methylsulfonyl)phenyl]-4-morpholin-4-yl-6-oxo-1,6-dihydropyrimidine] the same measures were 255 to 258 °C, 97%, 94% and 92%.
Compound `CNc1nc(-c2ccc(F)cc2)n(-c2ccc(SC)cc2)c(=O)c1C#N` [Example 56, 5-cyano-2-(4-fluorophenyl)-4-(methylamino)-1-[4-(methylthio)phenyl]-6-oxo-1,6-dihydropyrimidine] showed a melting point of 219 to 222 °C. In the data set on SF-268, the activity at 50 µM is 87%. Also, the activity at 50 µM in the data set with NCI-H460 was determined as 54%. In addition, the activity at 50 µM in the data set on MCF-7 stood at 63%.

The inhibition is the change of the read-out against control, counted positive when it falls. The low end stands for a weak effect, the high end for a strong effect. As a reminder, the melting point is the temperature, or range, at which the solid turns liquid.
